Source: publication PMC6982223, “Design, Synthesis and Molecular Modeling Study of Conjugates of ADP and Morpholino Nucleosides as A Novel Class of Inhibitors of PARP-1, PARP-2 and PARP-3” (International Journal of Molecular Sciences, 2019)

Tests used:
Assay type in all cases: biochemical
[1] = biological target: T1, PARP-1 (Homo sapiens, UniProt P09874); assay: kinetics of PARP-1 inhibition (Km, Vmax, type of inhibition) by fluorescence anisotropy; conditions: for type of inhibition: PARP-1 catalyzed reaction, versus NAD+
T1 construct: made in house
Method: The type of inhibition was determined based on at what stage of the reaction the inhibitor binds to the enzyme (before or after the substrate binding) and where it binds (at the substrate binding site or elsewhere). There are four types of inhibition: competitive, whereby an inhibitor binding occurs at the substrate-binding site; noncompetitive, where an inhibitor binds at the allosteric center; mixed with inhibitor binding at both the active and allosteric center; or uncompetitive under an inhibitor binding to the enzyme-substrate complex. Determination of the type of inhibition is necessary to confirm the computer simulation data and to plan further modifications of the inhibitor structure. The type of inhibition can be determined from the plots of the reaction parameters, such as maximum rates, Vmax and the apparent Michaelis constant, Km, values, versus inhibitor concentration. […] Noncompetitive inhibition leads to a decrease of Vmax and retention of the Km values. Mixed inhibition is a superposition of the first two, and is characterized by a decrease in the reaction rate and an increase in Km values. In the case of uncompetitive inhibition, both […].
To determine the type of inhibition of the studied compounds, the activity of PARP-1 was measured at presence of three different inhibitor concentrations at nine NAD+ substrate concentrations by the fluorescence anisotropy technique. Based on the obtained data, dependence graphs of the initial reaction rate on the substrate concentration were constructed, and reaction parameters such as maximum reaction rate (Vmax) and apparent Michaelis constant (Km) values were found (Tables S3 and S4, Supporting). To determine the type of inhibition, we plotted the dependence graph of Vmax and Km values on the inhibitor concentration using OriginPro 8.6.0 software. (Figure 3). […] Therefore, the results of modeling of the binding type of these compounds in the enzyme’s active center are legitimate.
The determination of the kinetic parameters of inhibition Km and Vmax was carried out as described. In all experiments, the points on the experimental curves represent the average of a minimum three independent experiments.

[2] = biological target: T2, Human recombinant poly(ADP-ribose)-polymerase 1 (Homo sapiens, UniProt P09874); assay: autopoly(ADP-ribosyl)ation of PARP-1, [32P]NAD+ incorporation; conditions: for IC50: autopoly(ADP-ribosyl)ation, 0.3 mM NAD+
T2 construct: made in house
Text: (§1) The oligonucleotides were purchased from Biosset (Novosibirsk, Russia). The reagents, solvents and the basic components of buffers were purchased from Sigma (St. Louis, MO, USA), Acros organics (Waltham, MA, USA) or Promega (Madison, WI, USA). γ–[^32P]-ATP and α–[^32P]-ATP (with specific activities of 5000 and 3000 Ci/mmol, respectively) were from the Laboratory of Biotechnology (Institute of Chemical Biology and Fundamental Medicine, Novosibirsk, Russia). T4 polynucleotide kinase was from Biosan (Novosibirsk, Russia). SUMO fusion expression vector pETHSUL (GenBank: EF205333.1) and pSUPER vector coding for the catalytic domain of the S. cerevisiae SUMO hydrolase dtUD1 were kindly provided by Dr. P. Loll (Drexel University, Philadelphia, USA). His6 and Strep-II double-tagged dtUD1 hydrolase was expressed and purified as described in ref. [81]. Human recombinant poly(ADP-ribose)-polymerase 1 (EC 2.4.2.30) was prepared as described previously. Murine recombinant poly(ADP-ribose)-polymerase 2 (EC 2.4.2.30) was purified as described previously. Plasmid encoding human PARP-3 was kindly provided by Dr. A. Ishchenko (Gustave Roussy, Université Paris-Saclay, France). Poly(ADP-ribose)-polymerase 3 (EC 2.4.2.30) was purified according to [6].
(§2) The reaction of autopoly(ADP-ribosyl)ation was carried out as follows: for PARP-1 50 mM tris-HCl, pH 8.0, 20 mM MgCl2, 150 mM NaCl, and 7 mM β-mercaptoethanol, activated DNA 2 OE/mL, 0.3 mM [^32P] NAD+ at 37 °C. The reaction was initiated by adding PARP-1 to 200 nM and the reaction mixtures were incubated for 1.5 min. For PARP-2: 50 mM tris-HCl, pH 8.0, 3 mM spermin, 150 mM NaCl, and 7 mM β-mercaptoethanol, activated DNA 2 OE/mL, 0.6 mM [^32P] NAD+ at 37 °C. The reaction was initiated by adding PARP-2 to 800 nM and the reaction mixtures were incubated for 5 min. The reaction was stopped by placing 10 μL aliquots onto Whatman 1 paper filters soaked with 5 % TCA. The filters were washed with 5% TCA for four times and dried in air after the removal of TCA with 90% ethanol. The incorporation of radioactivity into the product was calculated with a Tri-Carb 2800 scintillation counter (Perkin Elmer, Waltham, MA, USA) according to the Cherenkov method or using Typhoon FLA 9500 scanner (GE Healthcare, Chicago, IL, USA). To determine the IC50 value of inhibitors (concentration of the compound required reducing the enzyme activity by 50%), we studied the activity of the enzyme at different concentrations of inhibitors. Measurements were done in at least two independent experiments. IC50 values were calculated using the Origin Pro 8.0 software by nonlinear regression analysis.

[3] = biological target: T3, Murine recombinant poly(ADP-ribose)-polymerase 2 (Mus musculus, UniProt O88554); assay: autopoly(ADP-ribosyl)ation of PARP-2, [32P]NAD+ incorporation; conditions: for IC50: autopoly(ADP-ribosyl)ation, 0.6 mM NAD+
T3 construct: made in house
Text: as §1, §2

[4] = biological target: T4, PARP-3 (Homo sapiens, UniProt Q9Y6F1); assay: auto(ADP-ribosyl)ation of PARP-3
T4 construct: made in house
T4 sequence (Q9Y6F1 1-533): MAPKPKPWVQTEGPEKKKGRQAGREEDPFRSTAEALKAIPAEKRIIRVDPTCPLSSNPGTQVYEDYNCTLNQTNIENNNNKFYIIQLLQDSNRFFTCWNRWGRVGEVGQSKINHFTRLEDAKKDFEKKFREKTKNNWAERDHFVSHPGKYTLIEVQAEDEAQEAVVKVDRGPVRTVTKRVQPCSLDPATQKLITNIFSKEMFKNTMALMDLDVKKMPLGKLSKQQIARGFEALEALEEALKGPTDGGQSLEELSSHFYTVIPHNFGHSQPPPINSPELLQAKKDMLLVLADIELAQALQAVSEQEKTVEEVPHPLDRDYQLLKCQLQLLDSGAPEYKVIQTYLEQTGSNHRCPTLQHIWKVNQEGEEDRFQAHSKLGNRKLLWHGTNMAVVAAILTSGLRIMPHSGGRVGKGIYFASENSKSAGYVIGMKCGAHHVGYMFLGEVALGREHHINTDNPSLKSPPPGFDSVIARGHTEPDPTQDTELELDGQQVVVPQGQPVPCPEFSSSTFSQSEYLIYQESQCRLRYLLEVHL
Text: as §1
The reactions were performed in the presence of 2 mM MgCl2 as a cofactor in HDB buffer. The reaction mixtures (final volume 10 μL) contained 0.1 μM DNA substrate, 0.5 μM PARP-3, 5 μM [^32P]-NAD+ and 0, 35 or 95 μM NAD+ in the absence or presence of various concentrations of the inhibitor, which are indicated on the figures. The reaction mixtures were incubated for 20 min at 37 °С then terminated by adding the 5x gel loading Laemmli sample buffer and heating at 85 °C for 10 min. The mixtures were resolved on a 10% SDS-PAG as described in [84] The gels were dried and subjected to autoradiography and/or phosphorimaging for quantitation using the Typhoon imaging system from GE Healthcare Life Sciences. Quantitative processing was carried out using OriginPro7.5, Microcal Software, USA. […]

[5] = in the presence of 1 mM compound

T2 sequence (P09874 whole entry): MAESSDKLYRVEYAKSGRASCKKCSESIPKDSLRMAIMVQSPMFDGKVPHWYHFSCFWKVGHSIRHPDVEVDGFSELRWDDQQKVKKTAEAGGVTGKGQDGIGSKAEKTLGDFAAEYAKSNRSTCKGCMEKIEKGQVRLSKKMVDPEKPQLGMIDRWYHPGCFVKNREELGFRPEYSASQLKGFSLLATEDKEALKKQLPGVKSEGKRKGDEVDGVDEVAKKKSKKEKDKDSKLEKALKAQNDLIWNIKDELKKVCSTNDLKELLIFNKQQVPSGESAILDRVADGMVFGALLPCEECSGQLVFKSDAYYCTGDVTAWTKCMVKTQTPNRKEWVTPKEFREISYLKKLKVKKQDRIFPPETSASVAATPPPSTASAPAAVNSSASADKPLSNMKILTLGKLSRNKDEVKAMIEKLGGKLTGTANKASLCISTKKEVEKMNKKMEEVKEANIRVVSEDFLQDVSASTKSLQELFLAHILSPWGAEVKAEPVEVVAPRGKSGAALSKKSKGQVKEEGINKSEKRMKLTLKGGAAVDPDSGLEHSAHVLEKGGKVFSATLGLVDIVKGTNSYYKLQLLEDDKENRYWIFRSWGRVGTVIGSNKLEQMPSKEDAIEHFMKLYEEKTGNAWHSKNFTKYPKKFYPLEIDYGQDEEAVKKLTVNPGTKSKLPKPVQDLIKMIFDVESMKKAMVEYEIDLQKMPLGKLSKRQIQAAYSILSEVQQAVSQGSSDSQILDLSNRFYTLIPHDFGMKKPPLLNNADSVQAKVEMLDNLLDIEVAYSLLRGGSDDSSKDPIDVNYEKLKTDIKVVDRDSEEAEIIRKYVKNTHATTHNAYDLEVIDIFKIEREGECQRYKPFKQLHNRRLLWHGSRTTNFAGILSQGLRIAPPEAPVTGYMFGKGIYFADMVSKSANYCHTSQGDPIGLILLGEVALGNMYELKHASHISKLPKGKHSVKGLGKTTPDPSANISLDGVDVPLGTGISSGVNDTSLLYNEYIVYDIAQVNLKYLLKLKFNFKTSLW
T1 sequence (P09874 whole entry): as above
T3 sequence (O88554 whole entry): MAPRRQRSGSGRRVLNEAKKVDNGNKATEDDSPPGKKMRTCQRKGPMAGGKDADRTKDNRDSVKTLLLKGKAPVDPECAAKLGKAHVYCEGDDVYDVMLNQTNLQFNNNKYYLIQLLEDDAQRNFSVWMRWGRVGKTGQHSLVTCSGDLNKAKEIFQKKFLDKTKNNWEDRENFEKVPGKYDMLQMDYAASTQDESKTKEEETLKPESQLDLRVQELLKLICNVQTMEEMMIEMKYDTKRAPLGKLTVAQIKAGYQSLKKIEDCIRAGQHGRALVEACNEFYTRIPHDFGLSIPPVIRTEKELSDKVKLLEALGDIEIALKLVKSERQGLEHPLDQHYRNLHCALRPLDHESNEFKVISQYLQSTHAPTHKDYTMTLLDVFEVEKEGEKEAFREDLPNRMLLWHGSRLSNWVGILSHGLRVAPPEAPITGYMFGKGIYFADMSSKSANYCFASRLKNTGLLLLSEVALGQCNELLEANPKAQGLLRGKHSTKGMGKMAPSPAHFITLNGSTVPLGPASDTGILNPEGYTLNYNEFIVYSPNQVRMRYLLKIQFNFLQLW

Row | SMILES | Vmax ([1]; inhibitor concentration 50 μМ) [RFU/sec] | Vmax ([1]; inhibitor concentration 100 μМ) [RFU/sec] | Vmax ([1]; inhibitor concentration 500 μМ) [RFU/sec] | IC50 [2] [µM] | IC50 [3] [µM] | type of inhibition [1] | further results
1 | NC(=O)c1cccc(N)c1 [Compound 3-AB, 3-aminobenzamide, reference compound] | 0.16 | 0.16 | 0.16 |  |  |  | 
2 | Nc1ncnc2c1ncn2C1OC(COP(=O)(O)OP(=O)(O)OCC2CNCC(n3cc(I)c(=O)[nH]c3=O)O2)C(O)C1O (centres unmarked) [Compound 4IU] | 0.16 | 0.15 | 0.14 | 255 | 160 | mixed inhibitor | 
3 | Nc1ncnc2c1ncn2C1CNCC(CNP(=O)(O)OP(=O)(O)OCC2OC(n3cnc4c(N)ncnc43)C(O)C2O)O1 (centres unmarked) [Compound 10A] |  |  |  | 353 ± 4 | 63 ± 10 | mixed inhibitor | activity against PARP-3 [4]: lack of activity; Vmax ([1]; inhibitor concentration 300 μМ): 0.090 RFU/sec; Vmax ([1]; inhibitor concentration 600 μМ): 0.068 RFU/sec; Vmax ([1]; inhibitor concentration 900 μМ): 0.062 RFU/sec
4 | Nc1ncnc2c1ncn2C1OC(COP(=O)(O)OP(=O)(O)NCC2CNCC(n3cc(I)c(=O)[nH]c3=O)O2)C(O)C1O (centres unmarked) [Compound 10IU] | 0.19 | 0.18 | 0.17 | 126 | 110 | competitive inhibitors | activity against PARP-3 [4]: low activity; inhibitory activity in the auto(ADP-ribosyl)ation reaction of PARP-3 ([4]; 1 mM concentration): significant inhibitory activity
5 | O=c1[nH]c(=O)n([C@H]2CNC[C@@H](CO)O2)cc1Br [Compound 11BrU] |  |  |  | 61 ± 16 | 210 ± 48 |  | 
6 | O=c1[nH]c(=O)n([C@H]2CNC[C@@H](CO)O2)cc1Cl [Compound 11ClU] |  |  |  | 233 ± 25 | 378 |  | 
7 | O=c1[nH]c(=O)n([C@H]2CNC[C@@H](CO)O2)cc1I [Compound 11IU] | 0.066 | 0.066 | 0.060 | 53 ± 12 | 85 ± 9 | competitive inhibitors | 
8 | Cc1cn([C@H]2CNC[C@@H](CO)O2)c(=O)[nH]c1=O [Compound 11T] |  |  |  | 148 ± 53 | 114 ± 32 |  | 
9 | O=c1ccn([C@H]2CNC[C@@H](CO)O2)c(=O)[nH]1 [Compound 11U] |  |  |  |  |  |  | remaining activity at 1000 µM ([2]; in the presence of 1 mM compound, read-out: Residual PARP-1 activity (converted)): 91%; remaining activity at 1000 µM ([3]; in the presence of 1 mM compound, read-out: Residual PARP-2 activity (converted)): 97%
10 | Nc1ccn([C@@H]2O[C@H](CO)[C@@H](O)[C@H]2O)c(=O)n1 [Cyd, reference compound] |  |  |  |  |  |  | Residual PARP-1 activity [2, 5]: 81% ± 16%; Residual PARP-2 activity [3, 5]: 85% ± 4%
11 | Nc1nc2c(ncn2[C@@H]2O[C@H](CO)[C@@H](O)[C@H]2O)c(=O)[nH]1 [Guo, reference compound] |  |  |  |  |  |  | Residual PARP-1 activity [2, 5]: 60% ± 13%; Residual PARP-2 activity [3, 5]: 46% ± 25%
12 | Cc1cn([C@@H]2O[C@H](CO)[C@@H](O)[C@H]2O)c(=O)[nH]c1=O [rThd, reference compound] |  |  |  | 277 ± 107 | 330 ± 61 |  | 
